Test results reported in publication PMC10856758, “New Dual Inhibitors of Tyrosyl-DNA Phosphodiesterase 1 and 2 Based on Deoxycholic Acid: Design, Synthesis, Cytotoxicity, and Molecular Modeling” (Molecules, 2024).
Where two headings read alike, the source gives them in different places.

What was measured:
[1] = MTT cytotoxicity/antiproliferative assay; conditions: human, HeLa cells, HeLa CC50, 72 h of treatment, MTT assay
Description: (§1) Topotecan (TOP1 inhibitor) and etoposide (TOP2 inhibitor) were used to study the effect combined with DCA derivatives on the metabolic activity of cells. […] Topotecan (0.5 µM) and etoposide (5 µM) were used at a concentration with low toxicity (>70% of living cells), selected based on preliminary experiments.
(§2) The cells were seeded in 96-well plates in quadruplicates at 3 × 10^3 cells/well. The cells were grown in Dulbecco’s Modified Eagle—Medium (DMEM) (AppliChem, Darmstadt, Germany) with Antibiotic-Antimycotic (100 IU/mL penicillin, 0.1 μg/mL streptomycin, 0.25 µg/mL amphotericin) (1×) (Gibco, Grand Island, NE, USA) and 10% of fetal bovine serum (Gibco, Grand Island, NE, USA) in a 5% CO2 atmosphere at 37 °C. After the formation of a 50% monolayer, tested compounds were added to the medium, and the cell culture was monitored for 72 h at 37 °C. DCA derivatives were dissolved in 100% DMSO and topotecan/etoposide in water. Control cells were grown in the presence of the same volume of DMSO, those cells with the investigated compound. […] (MTT) solution (10 μL, 5 mg/mL) were added to each well and the cells were incubated for an additional 2 h. Then, the medium was removed from the wells, and 100 μL of iso-propanol was added to dissolve blue formazan crystals formed within live cells; the optical density was measured at test and reference wavelengths (570 nm and 620 nm, respectively) using CLARIOstar fluorimeter (BMG LABTECH, GmbH, Ortenberg, Germany). The experiments were repeated at least three times.

[2] = test system: HeLa cells; experiment: MTT cytotoxicity/antiproliferative assay; conditions: low-toxicity concentration, preliminary experiments
Description: as §1, §2

[3] = target: T1, TDP1 (Homo sapiens, UniProt Q9NUW8); experiment: TDP1 activity, real-time fluorescence oligonucleotide biosensor (FAM/BHQ1); assay type: biochemical; conditions: 1.5 nM TDP1, 50 nM biosensor
Source text: To detect TDP1 activity in real time, we used an oligonucleotide biosensor based on the ability of TDP1 to remove fluorophore quenchers from the 3’ end of DNA [29]. The hexadecamer oligonucleotide carried 5(6)-carboxyfluorescein (FAM) at the 5’ end as a fluorophore and Black Hole Quencher-1 (BHQ1) at the 3’ end as a fluorophore quencher. TDP1 inhibitors prevent the removal of fluorophore quenchers, resulting in a decrease in fluorescence intensity.
TDP1 activity was detected as described in [31]. We measured the fluorescence intensity after quencher cleavage via a fluorophore quencher–coupled DNA oligonucleotide […]. The reaction mixtures contained TDP1 buffer (50 mM Tris, HCl pH 8.0, 50 mM NaCl, and 7 mM β-mercaptoethanol), 50 nM biosensor, and different concentrations of inhibitors. The reaction was triggered by adding TDP1 to a final concentration of 1.5 nM. The fluorophore quencher–coupled DNA oligonucleotide was synthesized in the Laboratory of Nucleic Acid Chemistry at the Institute of Chemical Biology and Fundamental Medicine (Novosibirsk, Russia).
The reaction mixtures were incubated at room temperature in a 96-well plate, and fluorescence was measured using the POLARstar OPTIMA fluorimeter (BMG LABTECH, GmbH, Ortenberg, Germany) every 55 s during the linear phase (here, data from minute 0 to minute 8). […] Data calculation was carried out using the software MARS Data Analysis 2.0 (BMG LABTECH, Ortenberg, Germany).

[4] = target: T2, TDP2 (Homo sapiens, UniProt O95551); experiment: Gel-based TDP2 activity assay (removal of 5'-tyrosine, PAGE); assay type: biochemical; conditions: for remaining activity at 500 µM: read-out: TDP2, % (residual activity of TDP2); for IC50: 200 nM TDP2, 100 nM substrate, 15 min 37 °C
T2 sequence (O95551 1-362): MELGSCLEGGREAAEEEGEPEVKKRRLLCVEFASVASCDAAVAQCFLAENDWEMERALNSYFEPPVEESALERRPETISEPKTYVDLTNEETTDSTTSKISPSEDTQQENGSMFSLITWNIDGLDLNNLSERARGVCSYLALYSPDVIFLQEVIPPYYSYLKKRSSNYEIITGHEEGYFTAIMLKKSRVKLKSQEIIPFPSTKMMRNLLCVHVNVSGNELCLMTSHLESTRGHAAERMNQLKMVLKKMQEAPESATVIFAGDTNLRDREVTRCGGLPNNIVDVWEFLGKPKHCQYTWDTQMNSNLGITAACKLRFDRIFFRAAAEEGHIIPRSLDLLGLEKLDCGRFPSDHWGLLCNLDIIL
Description: We investigated the activity against the TDP2 enzyme of compounds 3d–f and 4a–e at 500 μM (Table 1). The basis for testing TDP 2 was its ability to remove a tyrosine residue from the 5’ end of an oligonucleotide substrate. The TDP2 reaction products were separated in a polyacrylamide gel (PAGE) with formamide denaturation.
TDP2 activity was detected as described in [42]. We separated the products of the reaction of cleavage of the tyrosine residue from the 5′-end of the 3e FAM-labeled oligonucleotide in a polyacrylamide gel under denaturing conditions. […] The reaction mixtures contained TDP1 buffer ([…] Tris-HCl pH 8.0, 40 mM NaCl, 1 mM DTT, 0.05 mg/mL BSA (Sigma-Aldrich, St. Luis, MO, USA)), 100 nM oligonucleotide substrate, and inhibitors. The reaction was triggered by adding TDP2 to a final concentration of 200 nM.
The reaction mixtures were incubated for 15 min at 37 °C. The reaction products were analyzed using Typhoon FLA 9500 phosphorimager (GE Healthcare, Boston, MA, USA). Each experiment was carried out in three independent replicates. The data were analyzed with QuantityOne 4.6.7 software.

[5] = target: T1, TDP1; design: method as in PMID 33221302; conditions: earlier DCA derivatives; cited from earlier work
[6] = target: T2, TDP2; design: method as in PMID 35011303; conditions: at ~1 mM concentration; cited from earlier work
[7] = test system: HeLa cells; experiment: MTT assay, combination with topotecan or etoposide; assay type: cell-based, human; conditions: with 0.5 μM topotecan or 5 µM etoposide
Description: Next, the ability of the selected compounds to enhance the cytotoxic effect of topotecan and etoposide on the HeLa cell line was studied. CC50 values (50% cytotoxic concentration) were also calculated for the test compounds in the presence of topotecan or etoposide at fixed concentrations. For evaluation, three independent MTT assays were performed as described above with test substances in combination with topotecan at a final concentration of 0.5 μM and etoposide at a final concentration of 5 μM per well.
Figure 2 The combined action of compounds 3d–e and 4d–e with 0.5 μM topotecan (Tpc, (A)) and 5 µM etoposide (Eto, (B)) on the survival of HeLa cells. The error bars show standard deviations.

[8] = test system: HeLa cells; conditions: human, 72 h
Description: as §1, §2

[9] = in vitro; conditions: human, HeLa CC50
Description: as §1, §2

T1 sequence (Q9NUW8 whole entry): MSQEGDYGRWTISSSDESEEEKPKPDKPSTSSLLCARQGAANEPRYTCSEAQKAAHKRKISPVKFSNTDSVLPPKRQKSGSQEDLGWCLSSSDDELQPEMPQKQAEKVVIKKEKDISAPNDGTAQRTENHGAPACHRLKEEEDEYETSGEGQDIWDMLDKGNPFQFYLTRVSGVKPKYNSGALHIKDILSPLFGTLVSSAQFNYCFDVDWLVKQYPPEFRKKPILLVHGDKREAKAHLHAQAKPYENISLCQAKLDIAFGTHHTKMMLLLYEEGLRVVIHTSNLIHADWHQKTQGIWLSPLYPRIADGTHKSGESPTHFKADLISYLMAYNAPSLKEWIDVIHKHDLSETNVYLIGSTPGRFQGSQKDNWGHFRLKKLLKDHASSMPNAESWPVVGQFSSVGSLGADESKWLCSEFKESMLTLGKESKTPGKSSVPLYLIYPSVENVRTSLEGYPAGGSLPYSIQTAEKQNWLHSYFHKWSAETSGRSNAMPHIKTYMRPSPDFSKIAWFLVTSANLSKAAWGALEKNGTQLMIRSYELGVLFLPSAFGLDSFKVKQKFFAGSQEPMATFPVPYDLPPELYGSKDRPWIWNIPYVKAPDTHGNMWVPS

| Structure (SMILES) | IC50 [3] | remaining activity at 500 µM ([4]; at 500 µM compound) | melting point | CC50 at 72 h [9] | other results |
| --- | --- | --- | --- | --- | --- |
| CC[C@@]1(O)C(=O)OCc2c1cc1n(c2=O)Cc2cc3c(CN(C)C)c(O)ccc3nc2-1 [Topotecan] |  |  |  |  | CC50 at 72 h [1]: 0.9 ± 0.1 µM; living cells ([2]; topotecan alone at 0.5 µM): > 70% |
| CC(CCC(=O)O)C1CCC2C3CCC4CC(O)(CSc5nccn5C)CCC4(C)C3CC(O)C12C (stereo not drawn) [3b, 3β,12α-Dihydroxy-3α-((1-methyl-1H-imidazol-2-ylthio)methyl)-5β-cholan-24-oic Acid] | 30 ± 7 µM | ≥ 100% | 119.9 °C (dec.) |  |  |
| CC(CCC(=O)NCCc1c[nH]c2ccccc12)C1CCC2C3CCC4CC(OCc5ccccc5)CCC4(C)C3CC(O)C12C (stereo not drawn) [3α-benzyloxy deoxycholic tryptamide] |  |  |  |  | IC50 [5]: 240 nM; TDP1 IC50 [5]: submicromolar range; TDP2 residual activity [6]: less than 50% |
| CC(CCC(=O)O)C1CCC2C3CCC4CC(O)(CSc5ccncc5)CCC4(C)C3CC(O)C12C (stereo not drawn) [3a, 3β,12α-Dihydroxy-3α-((pyrydin-4-ylthio)methyl)-5β-cholan-24-oic Acid] | 22 ± 2 µM | 92 ± 3% | 119.6 °C (dec.) |  |  |
| COC(=O)CCC(C)C1CCC2C3CCC4CC(O)(CSc5nc6ccccc6s5)CCC4(C)C3CC(O)C12C (stereo not shown) [4e] | 0.63 ± 0.03 µM | ~49% | 74.5 °C (dec.) | > 75 µM | combined cytotoxic effect / cell survival under drug combinations [7]: most noticeable combined cytotoxic effect with both topotecan and etoposide; CC50 [8]: > 100 µM |
| Cc1ccc2[nH]c(SCC3(O)CCC4(C)C(CCC5C4CC(O)C4(C)C(C(C)CCC(=O)O)CCC54)C3)nc2c1 (stereo not shown) [3d] | 25 ± 4 µM | ~25% | 188.9 °C (dec.) | 63 ± 6 µM | IC50 [4]: 250 ± 30 µM; TDP2, % (residual activity of TDP2) ([4]; at 500 µM compound, 500 µM): 24 ± 5% |
| COC(=O)CCC(C)C1CCC2C3CCC4CC(O)(CSc5nc6ccccc6o5)CCC4(C)C3CC(O)C12C (stereo not shown) [4f] | 1.8 ± 0.5 µM | ≥ 100% | 75 °C (dec.) |  |  |
| COC(=O)CCC(C)C1CCC2C3CCC4CC(O)(CSc5nc6cc(C)ccc6[nH]5)CCC4(C)C3CC(O)C12C (stereo not shown) [4d] | 0.94 ± 0.04 µM | ~14% | 112.1 °C (dec.) | 50 ± 13 µM | IC50 [4]: 218 ± 7 µM |
| CC(CCC(=O)O)C1CCC2C3CCC4CC(O)(CSc5nc6ccccc6s5)CCC4(C)C3CC(O)C12C (stereo not shown) [3e] | 14 ± 2 µM | ~2% | 106.2 °C (dec.) | 75 ± 13 µM | IC50 [4]: 76 ± 13 µM |
| COC1CCC2(C)C(CCC3C2CC(OC)C2(C)C(C(C)CCC(=O)Nc4ccc(Br)cc4)CCC32)C1 (stereo not drawn) [3α,12α-bis-methoxy deoxycholic para-bromoanilide] |  |  |  |  | IC50 [5]: 270 nM; TDP1 IC50 [5]: submicromolar range |
| COc1cc([C@@H]2c3cc4c(cc3[C@@H](O[C@@H]3O[C@@H]5CO[C@@H](C)O[C@H]5[C@H](O)[C@H]3O)[C@H]3COC(=O)[C@H]23)OCO4)cc(OC)c1O [Etoposide] |  |  |  |  | CC50 at 72 h [1]: 6.2 ± 0.6 µM; living cells ([2]; etoposide alone at 5 µM): > 70% |
| CC(CCC(=O)O)C1CCC2C3CCC4CC(O)(CSc5nc[nH]n5)CCC4(C)C3CC(O)C12C (stereo not drawn) [3c, 3β,12α-Dihydroxy-3α-((1H-1,2,4-triazol-5-ylthio)methyl)-5β-cholan-24-oic Acid] | 32 ± 4 µM | ≥ 100% | 95.1 to 98.4 °C |  |  |
